Measured values reported in ChEMBL document CHEMBL1123675, “2,4-Diamino-5-benzylpyrimidines as antibacterial agents. 7. Analysis of the effect of 3,5-dialkyl substituent size and shape on binding to four different dihydrofolate reductase enzymes” (J Med Chem, 1987).
Values belong to the compound of their own block, whether it stands above or below them.

Assays:
Dihydrofolate reductase [1] = target: Dihydrofolate reductase (Neisseria gonorrhoeae, UniProt P04174); assay: Inhibitory activity against dihydrofolate reductase (DHFR) of Neisseria gonorrhoea; settings: read-out: I50
Sequence of Dihydrofolate reductase (Neisseria gonorrhoeae, UniProt P04174) (P04174 whole entry): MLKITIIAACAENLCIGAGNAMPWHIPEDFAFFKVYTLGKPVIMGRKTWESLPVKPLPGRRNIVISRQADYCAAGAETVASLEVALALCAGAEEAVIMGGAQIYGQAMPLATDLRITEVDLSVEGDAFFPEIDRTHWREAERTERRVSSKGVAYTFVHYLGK

[2] = target: Bifunctional dihydrofolate reductase-thymidylate synthase (Plasmodium berghei str. ANKA, UniProt Q27713); assay: Inhibitory activity against dihydrofolate reductase (DHFR) of Plasmodium berghei; settings: read-out: I50
Sequence of Bifunctional dihydrofolate reductase-thymidylate synthase (Q27713 whole entry): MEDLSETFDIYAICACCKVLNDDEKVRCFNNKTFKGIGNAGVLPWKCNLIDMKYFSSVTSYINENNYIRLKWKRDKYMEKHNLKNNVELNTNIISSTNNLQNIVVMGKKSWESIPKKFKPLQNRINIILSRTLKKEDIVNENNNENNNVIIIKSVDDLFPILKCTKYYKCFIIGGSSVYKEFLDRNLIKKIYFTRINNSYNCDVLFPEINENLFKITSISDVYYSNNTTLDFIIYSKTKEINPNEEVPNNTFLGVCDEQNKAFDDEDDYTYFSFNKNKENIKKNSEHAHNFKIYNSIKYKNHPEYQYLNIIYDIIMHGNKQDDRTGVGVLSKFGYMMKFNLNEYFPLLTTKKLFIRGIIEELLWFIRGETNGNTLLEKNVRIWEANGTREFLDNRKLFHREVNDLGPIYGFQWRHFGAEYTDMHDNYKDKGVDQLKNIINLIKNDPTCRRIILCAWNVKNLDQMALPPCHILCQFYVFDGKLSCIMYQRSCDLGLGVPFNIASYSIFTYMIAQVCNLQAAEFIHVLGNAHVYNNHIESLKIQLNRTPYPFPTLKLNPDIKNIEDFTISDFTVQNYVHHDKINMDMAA

Dihydrofolate reductase [3] = target: T1, Dihydrofolate reductase (Rattus norvegicus, UniProt Q920D2); assay: Inhibitory activity against dihydrofolate reductase (DHFR) from rat liver; settings: read-out: I50
T1 sequence (Q920D2 whole entry): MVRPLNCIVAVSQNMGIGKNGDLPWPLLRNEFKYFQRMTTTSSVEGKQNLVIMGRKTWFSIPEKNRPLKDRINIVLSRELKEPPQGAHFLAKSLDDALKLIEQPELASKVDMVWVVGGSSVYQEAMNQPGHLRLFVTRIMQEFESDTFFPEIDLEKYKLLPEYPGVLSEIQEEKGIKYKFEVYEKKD

[4] = target: T2, Dihydrofolate reductase (Rattus norvegicus) (UniProt Q920D2); assay: Inhibitory activity against dihydrofolate reductase (DHFR) of Rat liver at a concentration 2 x 10 E -5 M
T2 sequence (whole entry): T1 sequence (Q920D2 whole entry)

[5] = target: T2, Dihydrofolate reductase (Rattus norvegicus); assay: Inhibitory activity against dihydrofolate reductase (DHFR) of Rat liver at a concentration 10 E -6 M

Structure (SMILES): CCCCOc1c(CCC)cc(Cc2cnc(N)nc2N)cc1CCC
IC50 (Dihydrofolate reductase [1]): 132 nM
IC50 [2]: 5.8 nM
IC50 (Dihydrofolate reductase [3]): 15000 nM

Structure (SMILES): CCc1cc(Cc2cnc(N)nc2N)cc(CC)c1OC
IC50 (Dihydrofolate reductase [1]): 155 nM
IC50 [2]: 12.1 nM
IC50 (Dihydrofolate reductase [3]): 58000 nM

Structure (SMILES): CCOc1cc(Cc2cnc(N)nc2N)cc(OCC)c1OCC
IC50 (Dihydrofolate reductase [1]): 220 nM
IC50 [2]: 7.5 nM
IC50 (Dihydrofolate reductase [3]): 30000 nM

Structure (SMILES): COc1cc(Cc2cnc(N)nc2N)cc(OC)c1O [4-HYDROXYTRIMETHOPRIM]
IC50 (Dihydrofolate reductase [1]): 330 nM

Structure (SMILES): CCc1cc(Cc2cnc(N)nc2N)cc(CC)c1OCCCOc1ccccc1
IC50 (Dihydrofolate reductase [1]): 64 nM
IC50 [2]: 10 nM
IC50 (Dihydrofolate reductase [3]): 8750 nM

Structure (SMILES): COc1cc(Cc2cnc(N)nc2N)ccc1N
IC50 (Dihydrofolate reductase [3]): 470000 nM

Structure (SMILES): CC(C)c1cc(Cc2cnc(N)nc2N)cc(C(C)C)c1O
IC50 (Dihydrofolate reductase [1]): 29 nM
IC50 [2]: 110 nM
IC50 (Dihydrofolate reductase [3]): 8900 nM

Structure (SMILES): COc1ccc(Cc2cnc(N)nc2N)cc1OC [DIAVERIDINE]
IC50 (Dihydrofolate reductase [1]): 530 nM
IC50 (Dihydrofolate reductase [3]): 86000 nM

Structure (SMILES): CCc1cc(Cc2cnc(N)nc2N)cc(CC)c1OCCO
IC50 (Dihydrofolate reductase [1]): 45 nM
IC50 (Dihydrofolate reductase [3]): 120000 nM

Structure (SMILES): CCCc1cc(Cc2cnc(N)nc2N)cc(CC)c1OC
IC50 (Dihydrofolate reductase [1]): 44 nM
IC50 [2]: 10 nM
IC50 (Dihydrofolate reductase [3]): 32000 nM

Structure (SMILES): CCCc1cc(Cc2cnc(N)nc2N)cc(CC)c1O
IC50 (Dihydrofolate reductase [1]): 49 nM
IC50 [2]: 15 nM
IC50 (Dihydrofolate reductase [3]): 4450 nM

Structure (SMILES): CCc1cc(Cc2cnc(N)nc2N)cc(CC)c1O
IC50 (Dihydrofolate reductase [1]): 120 nM
IC50 [2]: 28 nM
IC50 (Dihydrofolate reductase [3]): 16000 nM

Structure (SMILES): CCCc1cc(Cc2cnc(N)nc2N)cc(CCC)c1OC
IC50 (Dihydrofolate reductase [1]): 60 nM
IC50 [2]: 20 nM
IC50 (Dihydrofolate reductase [3]): 21000 nM

Structure (SMILES): CCCCC(CC)COc1c(CC)cc(Cc2cnc(N)nc2N)cc1CC (centres undefined)
IC50 (Dihydrofolate reductase [1]): 319 nM
IC50 [2]: 42 nM
Inhibition [4]: 0%

Structure (SMILES): CCOc1c(CC)cc(Cc2cnc(N)nc2N)cc1CC
IC50 (Dihydrofolate reductase [1]): 356 nM
IC50 [2]: 35 nM
IC50 (Dihydrofolate reductase [3]): 52000 nM

Structure (SMILES): COc1c(I)cc(Cc2cnc(N)nc2N)cc1I
IC50 (Dihydrofolate reductase [1]): 28 nM
IC50 [2]: 31 nM
IC50 (Dihydrofolate reductase [3]): 16000 nM

Structure (SMILES): CCOc1c(C)c(C)c(Cc2cnc(N)nc2N)c(C)c1C
Inhibition [5]: 0%

Structure (SMILES): Nc1ncc(Cc2cc(I)c(OCCCOc3ccccc3)c(I)c2)c(N)n1
IC50 (Dihydrofolate reductase [1]): 43 nM
IC50 (Dihydrofolate reductase [3]): 1580 nM

Structure (SMILES): COc1cc(Cc2cnc(N)nc2N)ccc1O
IC50 (Dihydrofolate reductase [3]): 35000 nM

Structure (SMILES): COc1c(C(C)C)cc(Cc2cnc(N)nc2N)cc1C(C)C
IC50 (Dihydrofolate reductase [1]): 63 nM
IC50 [2]: 23 nM
IC50 (Dihydrofolate reductase [3]): 13000 nM

Structure (SMILES): CCCCCCCCCCCCOc1c(CC)cc(Cc2cnc(N)nc2N)cc1CC
IC50 (Dihydrofolate reductase [1]): 3500 nM
IC50 [2]: 350 nM
IC50 (Dihydrofolate reductase [3]): 64000 nM

Structure (SMILES): CCCc1cc(Cc2cnc(N)nc2N)cc(CCC)c1O
IC50 (Dihydrofolate reductase [1]): 20 nM
IC50 [2]: 5.7 nM
IC50 (Dihydrofolate reductase [3]): 2000 nM

Second part, the compound after the results:

IC50 (Dihydrofolate reductase [1]): 240 nM
IC50 [2]: 77 nM
IC50 (Dihydrofolate reductase [3]): 130000 nM
Structure (SMILES): COc1c(C)cc(Cc2cnc(N)nc2N)cc1C(C)(C)C

IC50 (Dihydrofolate reductase [1]): 390 nM
IC50 (Dihydrofolate reductase [3]): 370000 nM
Structure (SMILES): Cc1cc(Cc2cnc(N)nc2N)cc(C(C)(C)C)c1N

IC50 (Dihydrofolate reductase [1]): 259 nM
IC50 (Dihydrofolate reductase [3]): 120000 nM
Structure (SMILES): Cc1cc(Cc2cnc(N)nc2N)cc(C(C)(C)C)c1O

IC50 (Dihydrofolate reductase [1]): 58 nM
IC50 [2]: 13 nM
IC50 (Dihydrofolate reductase [3]): 31000 nM
Structure (SMILES): COc1c(C(C)(C)C)cc(Cc2cnc(N)nc2N)cc1C(C)(C)C

IC50 (Dihydrofolate reductase [1]): 526 nM
IC50 (Dihydrofolate reductase [3]): 71000 nM
Structure (SMILES): Cc1cc(Cc2cnc(N)nc2N)cc(C)c1O

IC50 (Dihydrofolate reductase [3]): 160000 nM
Structure (SMILES): Cc1cc(Cc2cnc(N)nc2N)cc(Cl)c1N

IC50 (Dihydrofolate reductase [1]): 61 nM
IC50 [2]: 140 nM
IC50 (Dihydrofolate reductase [3]): 34500 nM
Structure (SMILES): CC(C)(C)c1cc(Cc2cnc(N)nc2N)cc(C(C)(C)C)c1O

IC50 (Dihydrofolate reductase [1]): 28 nM
IC50 [2]: 53 nM
IC50 (Dihydrofolate reductase [3]): 9900 nM
Structure (SMILES): Nc1ncc(Cc2cc(I)c(O)c(I)c2)c(N)n1

IC50 (Dihydrofolate reductase [1]): 350 nM
IC50 (Dihydrofolate reductase [3]): 39000 nM
Structure (SMILES): CCc1cc(Cc2cnc(N)nc2N)cc(C)c1O

IC50 (Dihydrofolate reductase [1]): 75 nM
IC50 (Dihydrofolate reductase [3]): 27000 nM
Structure (SMILES): CCc1cc(Cc2cnc(N)nc2N)cc(C(C)CC)c1N (centres undefined)

IC50 (Dihydrofolate reductase [1]): 500 nM
IC50 [2]: 120 nM
IC50 (Dihydrofolate reductase [3]): 250000 nM
Structure (SMILES): COc1c(C)cc(Cc2cnc(N)nc2N)cc1C

IC50 (Dihydrofolate reductase [1]): 318 nM
IC50 (Dihydrofolate reductase [3]): 130000 nM
Structure (SMILES): Nc1ncc(Cc2cc(Cl)c(N)c(Cl)c2)c(N)n1

IC50 (Dihydrofolate reductase [1]): 810 nM
IC50 (Dihydrofolate reductase [3]): 520000 nM
Structure (SMILES): COc1cc(Cc2cnc(N)nc2N)cc(OC)c1N

IC50 (Dihydrofolate reductase [1]): 137 nM
IC50 (Dihydrofolate reductase [3]): 34000 nM
Structure (SMILES): CC(C)c1cc(Cc2cnc(N)nc2N)cc(C(C)C)c1N

IC50 (Dihydrofolate reductase [1]): 93 nM
IC50 (Dihydrofolate reductase [3]): 57000 nM
Structure (SMILES): Nc1ncc(Cc2cc(Br)c(N)c(Br)c2)c(N)n1

IC50 (Dihydrofolate reductase [1]): 107 nM
IC50 (Dihydrofolate reductase [3]): 38000 nM
Structure (SMILES): CCc1cc(Cc2cnc(N)nc2N)cc(CC)c1N

IC50 (Dihydrofolate reductase [1]): 310 nM
IC50 [2]: 120 nM
IC50 (Dihydrofolate reductase [3]): 83000 nM
Structure (SMILES): CCc1cc(Cc2cnc(N)nc2N)cc(C)c1OC

IC50 (Dihydrofolate reductase [1]): 260 nM
Structure (SMILES): Cc1cc(Cc2cnc(N)nc2N)cc(C(C)C)c1N

IC50 (Dihydrofolate reductase [1]): 485 nM
IC50 (Dihydrofolate reductase [3]): 380000 nM
Structure (SMILES): Cc1cc(Cc2cnc(N)nc2N)cc(C)c1N

IC50 (Dihydrofolate reductase [1]): 560 nM
IC50 (Dihydrofolate reductase [3]): 144000 nM
Structure (SMILES): CCc1cc(Cc2cnc(N)nc2N)cc(C)c1N
